Reference: patent US20250231185A1, “Coronavirus T Cell Epitopes, Megapools and Uses Thereof” (La Jolla Institute for Immunology, priority 2021, published 2025)
Like-named read-outs stand apart in the source and are kept apart here.

Key:
[1] = system: CD8+ T cells; test: Meta-analysis of published SARS-CoV-2 CD8 T cell epitope data curated in the IEDB (25 studies); type: cell-based, human
[2] = system: CD8+ T cells; settings: cited from earlier work
[3] = SARS-CoV-2 Ag S, CD8 epitopes, dominant = recognized by 3 or more donors/different studies
[4] = SARS-CoV-2 Ag S, T cell type recognizing the epitope
[5] = SARS-CoV-2-derived CD8 epitopes, dominant = recognized by 3 or more donors/different studies
[6] = T cell type (CD4 or CD8) recognizing the SARS-CoV-2 epitope
[7] = CD8-restricted SARS-CoV-2 epitopes, Yes = recognized by 3 or more donors/different studies
[8] = CD8S (D) Megapool, antigen S, dominant = recognized in 3 or more donors/studies

Substance | Dominant [1, 3] | Restriction [2, 4] | Dominant [1, 5] | Restriction [2, 6] | also measured
1422 (HLMSFPQSA) [compound 1422] | Yes (more dominant epitopes are defined by being recognized by 3 or more donors/different studies) | CD8 | – | – | –
914 (VTDTPKGPK) [compound 914] | – | – | Yes (more dominant epitopes are defined by being recognized by 3 or more donors/different studies) | CD8 | –
1056 (IEYPIIGDEL) [compound 1056] | – | – | Yes (more dominant epitopes are defined by being recognized by 3 or more donors/different studies) | CD8 | –
961 (ISDYDYYRY) [compound 961] | – | – | Yes (more dominant epitopes are defined by being recognized by 3 or more donors/different studies) | CD8 | –
1401 (AQALNTLVKQL) [compound 1401] | Yes (more dominant epitopes are defined by being recognized by 3 or more donors/different studies) | CD8 | – | – | –
989 (MVMCGGSLYV) [compound 989] | – | – | Yes (more dominant epitopes are defined by being recognized by 3 or more donors/different studies) | CD8 | –
922 (DLKGKYVQI) [compound 922] | – | – | Yes (more dominant epitopes are defined by being recognized by 3 or more donors/different studies) | CD8 | –
901 (NTCDGTTFTY) [compound 901] | – | – | Yes (more dominant epitopes are defined by being recognized by 3 or more donors/different studies) | CD8 | –
1461 (QYIKWPWYI) [compound 1461] | Yes (more dominant epitopes are defined by being recognized by 3 or more donors/different studies) | CD8 | – | – | –
1361 (FTISVTTEIL) [compound 1361] | Yes (more dominant epitopes are defined by being recognized by 3 or more donors/different studies) | CD8 | – | – | –
1379 (LLFNKVTLA) [compound 1379] | Yes (more dominant epitopes are defined by being recognized by 3 or more donors/different studies) | CD8 | – | – | –
1085 (GVAMPNLYK) [compound 1085] | – | – | Yes (more dominant epitopes are defined by being recognized by 3 or more donors/different studies) | CD8 | –
1458 (YEQYIKWPWYI) [compound 1458] | Yes (more dominant epitopes are defined by being recognized by 3 or more donors/different studies) | CD8 | – | – | –
930 (YTMADLVYAL) [compound 930] | – | – | Yes (more dominant epitopes are defined by being recognized by 3 or more donors/different studies) | CD8 | –
1025 (VVYRGTTTYK) [compound 1025] | – | – | Yes (more dominant epitopes are defined by being recognized by 3 or more donors/different studies) | CD8 | –
1442 (GTHWFVTQR) [compound 1442] | Yes (more dominant epitopes are defined by being recognized by 3 or more donors/different studies) | CD8 | – | – | –
1020 (LVLSVNPYV) [compound 1020] | – | – | Yes (more dominant epitopes are defined by being recognized by 3 or more donors/different studies) | CD8 | –
1350 (SVASQSIIAY) [compound 1350] | Yes (more dominant epitopes are defined by being recognized by 3 or more donors/different studies) | CD8 | – | – | –
909 (ALRANSAVK) [compound 909] | – | – | Yes (more dominant epitopes are defined by being recognized by 3 or more donors/different studies) | CD8 | –
1087 (KMQRMLLEK) [compound 1087] | – | – | Yes (more dominant epitopes are defined by being recognized by 3 or more donors/different studies) | CD8 | –
1303 (NYNYLYRLF) [compound 1303] | Yes (more dominant epitopes are defined by being recognized by 3 or more donors/different studies) | CD8 | – | – | –
1065 (MMISAGFSL) [compound 1065] | – | – | Yes (more dominant epitopes are defined by being recognized by 3 or more donors/different studies) | CD8 | –
1319 (QPYRVVVL) [compound 1319] | Yes (more dominant epitopes are defined by being recognized by 3 or more donors/different studies) | CD8 | – | – | –
970 (RLYYDSMSY) [compound 970] | – | – | Yes (more dominant epitopes are defined by being recognized by 3 or more donors/different studies) | CD8 | –
1033 (SSNVANYQK) [compound 1033] | – | – | Yes (more dominant epitopes are defined by being recognized by 3 or more donors/different studies) | CD8 | –
1027 (VYRGTTTYKL) [compound 1027] | – | – | Yes (more dominant epitopes are defined by being recognized by 3 or more donors/different studies) | CD8 | –
951 (FVDGVPFVV) [compound 951] | – | – | Yes (more dominant epitopes are defined by being recognized by 3 or more donors/different studies) | CD8 | –

Substance | Dominant [1, 3] | Restriction [2, 4] | Dominant [1, 5] | Restriction [2, 6] | also measured
1055 (AIMTRCLAV) [compound 1055] | – | – | Yes (more dominant epitopes are defined by being recognized by 3 or more donors/different studies) | CD8 | –
1366 (TECSNLLLQY) [compound 1366] | Yes (more dominant epitopes are defined by being recognized by 3 or more donors/different studies) | CD8 | – | – | –
1315 (FQPTNGVGY) [compound 1315] | Yes (more dominant epitopes are defined by being recognized by 3 or more donors/different studies) | CD8 | – | – | –
910 (CTDDNALAYY) [compound 910] | – | – | Yes (more dominant epitopes are defined by being recognized by 3 or more donors/different studies) | CD8 | –
992 (DTDFVNEFY) [compound 992] | – | – | Yes (more dominant epitopes are defined by being recognized by 3 or more donors/different studies) | CD8 | –
903 (FTYASALWEI) [compound 903] | – | – | Yes (more dominant epitopes are defined by being recognized by 3 or more donors/different studies) | CD8 | –
1026 (VVYRGTTTY) [compound 1026] | – | – | Yes (more dominant epitopes are defined by being recognized by 3 or more donors/different studies) | CD8 | –
1351 (VASQSIIAY) [compound 1351] | Yes (more dominant epitopes are defined by being recognized by 3 or more donors/different studies) | CD8 | – | – | –
1428 (APHGVVFLHV) [compound 1428] | Yes (more dominant epitopes are defined by being recognized by 3 or more donors/different studies) | CD8 | – | – | –
1389 (MIAQYTSAL) [compound 1389] | Yes (more dominant epitopes are defined by being recognized by 3 or more donors/different studies) | CD8 | – | – | –
1347 (SPRRARSVA) [compound 1347] | Yes (more dominant epitopes are defined by being recognized by 3 or more donors/different studies) | CD8 | – | – | –
1304 (NYNYLYRLFRK) [compound 1304] | Yes (more dominant epitopes are defined by being recognized by 3 or more donors/different studies) | CD8 | – | – | –
1431 (VVFLHVTYV) [compound 1431] | Yes (more dominant epitopes are defined by being recognized by 3 or more donors/different studies) | CD8 | – | – | –
1452 (RLNEVAKNL) [compound 1452] | Yes (more dominant epitopes are defined by being recognized by 3 or more donors/different studies) | CD8 | – | – | –
1386 (LTDEMIAQY) [compound 1386] | Yes (more dominant epitopes are defined by being recognized by 3 or more donors/different studies) | CD8 | – | – | –
1398 (NQKLIANQF) [compound 1398] | Yes (more dominant epitopes are defined by being recognized by 3 or more donors/different studies) | CD8 | – | – | –
1150 (FTSDYYQLY) [compound 1150] | – | – | – | – | Dominant [1, 7]: Yes (more dominant epitopes are defined by being recognized by 3 or more donors/different studies)
1291 (KCYGVSPTK) [compound 1291] | – | – | – | – | Dominant [1, 7]: Yes (more dominant epitopes are defined by being recognized by 3 or more donors/different studies)
856 (FLNGSCGSV) [compound 856] | – | – | Yes (more dominant epitopes are defined by being recognized by 3 or more donors/different studies) | – | –
852 (VRIQPGQTF) [compound 852] | – | – | Yes (more dominant epitopes are defined by being recognized by 3 or more donors/different studies) | – | –
1105 (RIFTIGTVTLK) [compound 1105] | – | – | – | – | Dominant [1, 7]: Yes (more dominant epitopes are defined by being recognized by 3 or more donors/different studies)
1486 (KLPDDFTGCV) [compound 1486] | – | – | – | – | Dominant [1, 8]: Yes (more dominant epitopes are defined by being recognized by 3 or more donors/different studies)
1472 (GVYFASTEK) [compound 1472] | – | – | – | – | Dominant [1, 8]: Yes (more dominant epitopes are defined by being recognized by 3 or more donors/different studies)
1259 (WTAGAAAYY) [compound 1259] | – | – | – | – | Dominant [1, 7]: Yes (more dominant epitopes are defined by being recognized by 3 or more donors/different studies)
781 (STFNVPMEK) [compound 781] | – | – | Yes (more dominant epitopes are defined by being recognized by 3 or more donors/different studies) | – | –
442 (TLACFVLAAV) [compound 442] | – | – | – | – | Dominant ([1]; CD8 epitopes, Yes = recognized by 3 or more donors/different studies): Yes (more dominant epitopes are defined by being recognized by 3 or more donors/different studies)
874 (MPASWVMRI) [compound 874] | – | – | Yes (more dominant epitopes are defined by being recognized by 3 or more donors/different studies) | – | –
